Results from patent US6555113B1, “Modulation of cholesteryl ester transfer protein (CETP) activity” (priority 1995, dated 2003).

Tests used:
[1] = set-up: species or system New Zealand White Rabbits; details: rabbit, in vivo
[2] = tested on: aortic atherosclerotic lesions; assay: Measurement of aortic atherosclerotic lesions in rabbits, cholesterol-fed model of atherosclerosis; assay type: in vivo, New Zealand White Rabbits
Experimental: The synthetic vaccine peptide (SEQ ID NO:2) of Example 1 above was injected into New Zealand White Rabbits to test the ability of the vaccine peptide to elicit an immune response against endogenous rabbit CETP and to protect or reduce development of atherosclerosis. Group I contained six rabbits (rb#1-#6), each of which was subjected to a protocol for administration of the vaccine peptide. Control Group II contained six rabbits (rb#7-12) that were vaccinated but not fed a high cholesterol diet. Control Group III contained six rabbits (rb#13-18) that were not vaccinated and not fed a high cholesterol diet. Control Group IV contained six rabbits (rb#19-24) that were not vaccinated but fed a high cholesterol diet. The high cholesterol diet was administered starting four weeks after a final boost with the vaccine and continued for a total of 17 weeks.
On Day 0, peptide (100 μg) was suspended in the RIBI™ adjuvant system (RIBI ImmunoChem Research, Inc., Hamilton, Mont.) according to manufacturer's instructions to a final volume of […], and each rabbit of Group I and II were injected at two intramuscular sites (250 μl per site), subcutaneously at two sites (100 μl per site), and six intradermal sites (50 μl per site). On Day 28, a boost (100 μg of peptide in RIBI™ adjuvant system) was administered as on Day 0. On Day 49, another boost (100 μg of peptide in RIBI™ adjuvant system) was administered as on Day 0. […]
Aortas were removed from all surviving rabbits (four in Groups I and IV, five in Group II, six in Group III) after 17 weeks (Day 196 from primary vaccination) on cholesterol supplemented diet in Groups I and IV and control diet (no cholesterol supplement) in Groups II and III. […] The lesions were measured and the data quantitated using a computer program (The Morphometer, Woods Hole Educational Associated, Woods Hole, Mass.).

recombinant human CETP [3] = target: T1, recombinant human CETP (Homo sapiens, UniProt P11597); details: in vivo
[4] = set-up: species or system New Zealand White Rabbits; details: rabbit, in vivo; remark: listed apart in the source
recombinant human CETP [5] = target: T1, recombinant human CETP; details: in vivo; remark: listed apart in the source
recombinant human CETP [6] = target: T1, recombinant human CETP; details: in vivo; remark: listed apart in the source

T1 sequence (P11597 18-493): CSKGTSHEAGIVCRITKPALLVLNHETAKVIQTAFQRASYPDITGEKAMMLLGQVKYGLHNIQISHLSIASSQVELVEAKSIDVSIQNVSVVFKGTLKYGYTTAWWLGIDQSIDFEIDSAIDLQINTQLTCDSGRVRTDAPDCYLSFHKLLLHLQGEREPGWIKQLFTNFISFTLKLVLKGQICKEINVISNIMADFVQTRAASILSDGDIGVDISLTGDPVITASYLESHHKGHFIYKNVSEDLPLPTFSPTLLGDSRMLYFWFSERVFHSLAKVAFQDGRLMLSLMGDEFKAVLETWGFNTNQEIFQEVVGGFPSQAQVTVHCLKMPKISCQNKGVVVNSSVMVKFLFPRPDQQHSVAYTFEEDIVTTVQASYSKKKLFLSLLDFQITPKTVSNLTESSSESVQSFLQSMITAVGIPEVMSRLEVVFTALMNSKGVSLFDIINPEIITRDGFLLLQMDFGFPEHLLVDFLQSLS

## CQYIKANSKFIGITEFGFPEHLLVDFLQSLS [SEQ ID NO:2]
[1]
  increase in HDL-C concentrations compared to prebleed plasma samples: 2 to 5 fold
  plasma HDL concentrations over time: increasing plasma HDL concentrations over time
  ratio of Non-HDL/HDL: generally declined
  total cholesterol in plasma samples: no significant difference
[2]; Group I (vaccinated, cholesterol-supplemented diet) vs Group IV, 17 weeks on 0.25% cholesterol diet
  size of atherosclerotic lesions compared to non-vaccinated animals: statistically significant reduction
[2]; Group I vaccinated animals, 17 weeks on cholesterol supplemented diet, Oil Red O staining
  average total area of the aorta covered by lesions: 19%
[2]; animals fed cholesterol supplemented diets, vaccinated vs non-vaccinated
  reduction of the area of atherosclerotic lesions: greater than 50%
Recombinant human CETP [3]
  anti-CETP antibody that competed with Mab TP2 for binding to recombinant human CETP: three of the six mice
[4]
  levels of HDL-C compared to pre-vaccination levels: showed an increase
Recombinant human CETP [5]
  inhibition of TP2 binding to CETP by plasma: observed in plasma sample from two of the three rabbits
Recombinant human CETP [6]
  titers of anti-CETP antibody by direct ELISA: All Group I mice had significant titers
